Target: T1, hGIP-R (Homo sapiens, UniProt P48546)
T1 construct: expressed in transfected cells; host or cells: HEK-293 clonal cell lines
T1 sequence (P48546 22-466): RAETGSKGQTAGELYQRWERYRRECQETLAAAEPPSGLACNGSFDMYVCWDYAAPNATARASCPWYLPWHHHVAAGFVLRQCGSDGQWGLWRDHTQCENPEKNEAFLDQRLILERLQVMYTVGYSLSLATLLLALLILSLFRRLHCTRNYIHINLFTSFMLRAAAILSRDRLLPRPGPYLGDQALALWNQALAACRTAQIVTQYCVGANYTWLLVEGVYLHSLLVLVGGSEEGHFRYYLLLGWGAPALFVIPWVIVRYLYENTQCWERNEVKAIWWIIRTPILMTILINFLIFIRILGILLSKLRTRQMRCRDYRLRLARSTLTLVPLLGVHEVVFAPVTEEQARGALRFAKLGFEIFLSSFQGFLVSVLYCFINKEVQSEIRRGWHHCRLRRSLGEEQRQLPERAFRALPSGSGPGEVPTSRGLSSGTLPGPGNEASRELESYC
Assay: Functional hGIP-R Assay (cAMP formation, HTRF)
Assay type: cell-based
Conditions: for Emax: cAMP efficacy, percent of maximal response to GIP(1-42)OH, 37° C., 0.1% bovine casein, arithmetic mean ± SEM; for EC50: cAMP potency, HEK-293 cells expressing hGIP-R, incubated at 37° C. in the presence of 0.1% bovine casein, geometric mean, read-out: Human GIP-R EC50, nM (SEM, n)
Procedure: Functional activity was determined using CAMP formation in HEK-293 clonal cell lines expressing hGIP-R. hGIP-R receptor expressing cells were treated with compound (20 point concentration-response curve in DMSO, 2-fold Labcyte Echo direct dilution, 384 well plate Corning Cat #3570) in DMEM (Gibco Cat #31053) supplemented with 1× GlutaMAX™ (Gibco Cat #35050), 0.1% bovine casein (Sigma C4765-10ML), 250 μM IBMX (3-Isobutyl-1-methylxanthine, Acros Cat #228420010) and 20 mM HEPES (Gibco Cat #15630) in a 20 μL assay volume (final DMSO concentration was 1%). After a 30 min incubation at 37° C., the resulting increase in intracellular cAMP was quantitatively determined using the Revvity CAMP Dynamic 2 HTRF Assay Kit (62AM4PEJ). Briefly, cAMP levels within the cell were detected by adding the cAMP-d2 conjugate in cell lysis buffer (10 μL) followed by the antibody anti-cAMP-Eu^3+-Cryptate, also in cell lysis buffer (10 μL). The resulting competitive assay was incubated for at least 60 min at RT, then detected using a BMG Labtech PHERAstar FSX instrument with excitation at 320 nm and emission at 665 nm and 620 nm. PHERAstar units (emission at 665 nm/620 nm*10,000) are inversely proportional to the amount of cAMP present and were converted to nM cAMP per well using a CAMP standard curve. The amount of cAMP generated (nM) in each well was converted to a percent of the maximal response observed with human GIP (1-42) OH. A relative EC50 value and percent top (Emax) were derived by non-linear regression analysis using the percent maximal response vs. the concentration of compound added, fitted to a four-parameter logistic equation.

| SMILES | Emax | EC50 |
| --- | --- | --- |
| CC(C)(Cn1nc(C(F)(F)F)cc1-c1ccn(C2CC2)c(=O)c1)NC(=O)[C@@H](Cc1cnn(C(F)F)c1)N1CCC2(CC2c2ccc(-c3cnc4nc(C5CC5)cn4c3)nc2C2CC2)C1=O (single isomer, unassigned) [Example 166] | 116 ± 2.13% | 0.359 nM |
| Cn1cc2cc(-c3ccc([C@H]4C[C@@H]4C(=O)N[C@H](Cc4cnn(C(F)F)c4)C(=O)NC(C)(C)Cn4nc(C(F)(F)F)cc4Br)cc3)cnc2n1 [Example 12, (1S,2S)-N-((R)-1-((1-(5-bromo-3-(trifluoromethyl)-1H-pyrazol-1-yl)-2-methylpropan-2-yl)amino)-3-(1-(difluoromethyl)-1H-pyrazol-4-yl)-1-oxopropan-2-yl)-2-(4-(2-methyl-2H-pyrazolo[3,4-b]pyridin-5-yl)phenyl) cyclopropane-1-carboxamide] | 106 ± 5.38% | 104 nM |
| CN(C(=O)[C@H]1C[C@@H]1c1ccc(-c2cnc3nn(C)cc3c2)cc1F)[C@H](Cc1cnn(C)c1)C(=O)NC(C)(C)Cn1nc(C(F)(F)F)cc1-c1ccc(=O)n(C)c1 [Example 61, (1S,2S)-2-(2-Fluoro-4-(2-methyl-2H-pyrazolo [3,4-b]pyridin-5-yl)phenyl)-N-methyl-N-((R)-1-((2-methyl-1-(5-(1-methyl-6-oxo-1,6-dihydropyridin-3-yl)-3-(trifluoromethyl)-1H-pyrazol-1-yl)propan-2-yl)amino)-3-(1-methyl-1H-pyrazol-4-yl)-1-oxopropan-2-yl) cyclopropane-1-carboxamide] | 88.5 ± 2.66% | 56.8 nM |
| CN(C(=O)[C@H]1C[C@@H]1c1ccc(NC(=O)Nc2ccc(F)cc2)cc1)[C@H](Cc1cnn(C)c1)C(=O)NC(C)(C)Cc1ccc(F)cc1 [Example 36, (1S,2S)-N-((R)-1-((1-(4-Fluorophenyl)-2-methylpropan-2-yl)amino)-3-(1-methyl-1H-pyrazol-4-yl)-1-oxopropan-2-yl)-2-(4-(3-(4-fluorophenyl)ureido)phenyl)-N-methylcyclopropane-1-carboxamide] | 94 ± 11.1% | 104 nM |
| Cn1cc(C[C@@H](NC(=O)[C@H]2C[C@@H]2c2ccc(-c3cnc4nn(C)cc4c3)cc2)C(=O)NC(C)(C)Cn2nc(C(F)(F)F)cc2-c2ncsn2)cn1 [Example 17, (1S,2S)-N-((R)-1-((1-(5-(1,2,4-Thiadiazol-3-yl)-3-(trifluoromethyl)-1H-pyrazol-1-yl)-2-methylpropan-2-yl)amino)-3-(1-methyl-1H-pyrazol-4-yl)-1-oxopropan-2-yl)-2-(4-(2-methyl-2H-pyrazolo [3,4-b]pyridin-5-yl)phenyl) cyclopropane-1-carboxamide] | 129 ± 11.4% | 83.5 nM |
| Cn1cc(C[C@@H](NC(=O)[C@H]2C[C@@H]2c2ccc(-c3cnc4nn(C)cc4c3)cc2)C(=O)NC(C)(C)Cn2nc(C(F)(F)F)cc2-c2cnn(CC3COC3)c2)cn1 [Example 55, (1S,2S)-N-((R)-1-((2-Methyl-1-(1′-(oxetan-3-ylmethyl)-5-(trifluoromethyl)-1′H,2H-[3,4′-bipyrazol]-2-yl)propan-2-yl)amino)-3-(1-methyl-1H-pyrazol-4-yl)-1-oxopropan-2-yl)-2-(4-(2-methyl-2H-pyrazolo[3,4-b]pyridin-5-yl)phenyl) cyclopropane-1-carboxamide] | 109 ± 0.179% | 49.1 nM |
| COCc1cn2cc(-c3ccc([C@H]4C[C@@H]4C(=O)N[C@H](Cc4cnc5ncccn45)C(=O)NC(C)(C)Cn4cc(C(F)(F)F)cn4)cc3)cnc2n1 [Example 75, (1S,2S)-N-((R)-3-(Imidazo[1,2-a]pyrimidin-3-yl)-1-((2-methyl-1-(4-(trifluoromethyl)-1H-pyrazol-1-yl)propan-2-yl)amino)-1-oxopropan-2-yl)-2-(4-(2-(methoxymethyl)imidazo[1,2-a]pyrimidin-6-yl)phenyl)cyclopropane-1-carboxamide] | 119 ± 6.64% | 65 nM |

Source: US20260108546A1 (ELI LILLY AND COMPANY, priority 2024, published 2026)
